One may read the Kd as a measure of binding affinity in units of concentration.

The source of these data is article PMC7617459, “Comparative Evaluation and Profiling of Chemical Tools for the Nuclear Hormone Receptor Family 2” (ACS pharmacology & translational science, 2025).

Data set [1] relates to TLX. The settings on record: cited from earlier work.
Data set [2] has as its system human insulin promoter. The settings on record: insulin promoter assay; cited from earlier work.
Data set [3] has as its target T1, HNF4α (Homo sapiens, UniProt P41235).
T1 sequence (P41235 147-377 limits assumed): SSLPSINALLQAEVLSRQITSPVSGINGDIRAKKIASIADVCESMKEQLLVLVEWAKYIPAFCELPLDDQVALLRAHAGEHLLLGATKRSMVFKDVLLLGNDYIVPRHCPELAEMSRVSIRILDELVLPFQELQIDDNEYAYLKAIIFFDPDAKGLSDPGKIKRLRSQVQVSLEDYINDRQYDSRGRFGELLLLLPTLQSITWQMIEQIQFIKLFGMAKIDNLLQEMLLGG
Description: Gal4-hybrid reporter gene assay HNF4α. The settings on record: 30 µM, HEK293T. On the technique in general: A reporter such as luciferase makes a cellular process visible.
Description: (§1) HEK293T cells (German Collection of Microorganisms and Cell Culture GmbH, DSMZ) were cultured in Dulbecco’s modified Eagle’s medium (DMEM), high glucose supplemented with 10% fetal calf serum (FCS), sodium pyruvate (1 mM), penicillin (100 U/mL), and streptomycin (100 μg/mL) at 37 °C and 5% CO2 and seeded in 96-well plates (3 × 10^4 cells/well). The medium was changed to Opti-MEM without supplements, and the cells were transiently transfected with one pFA-CMV-hNR-LBD clone, pFR-Luc, and pRL-SV40 using Lipofectamine LTX reagent (Invitrogen, Thermo Fisher Scientific) according to the manufacturer’s instructions. Five hours after transfection, cells were incubated with the test compounds in Opti-MEM supplemented with penicillin (100 U/mL), streptomycin (100 μg/mL), and 0.1% DMSO. Each sample was set up in duplicates and tested in at least three independent experiments. After 16 h incubation, luciferase activity was measured using the Dual-Glo Luciferase Assay System (Promega) according to the manufacturer’s protocol on a Tecan Spark luminometer (Tecan Deutschland GmbH, Crailsheim, Germany). Firefly luminescence was divided by Renilla luminescence and multiplied by 1000 resulting in relative light units (RLUs) to normalize for transfection efficiency and cell growth. Fold activation was obtained by dividing the mean RLU of the test compound by the mean^a RLU of the untreated control, and relative activation was calculated by dividing the fold activation of a test sample by the fold activation of the respective reference agonist. Antagonistic effects were evaluated by coincubation of the test compound with the respective reference ligand.

The test system of data set [4] is fructose-1,6-bisphosphatase 1 (FBP1). On the set-up: method as in PMID 33114319. Particulars: HepG2 cells; cited from earlier work.
Data set [5] deals with adipocyte-derived stem cells (ASC). Put plainly: Adipogenesis assay (ASC differentiation, Oil Red O). It counts as cell-based. Particulars: 18 days. An excerpt:
Using the small collection of NR2 modulators with sufficient reproducible on-target activity and selectivity (6, 7, 9, 11, 12, 13, 19, 21, 22, 23, 25), we next explored their application as a chemogenomics set.[161] To probe the potential of the collection to link phenotypic effects and target in a complex cellular setting, we determined compound effects on the differentiation of adipocyte-derived stem cells (ASC). Under cyclic treatment with insulin, isobutylmethylxanthine, dexamethasone and the PPARγ agonist pioglitazone,[162] these cells develop into adipocytes and accumulate large amounts of fat. However, adipogenesis is orchestrated by many transcription factors[163] and could potentially involve a role of NR2 receptors. […] There was no uniform effect of RXR modulators on fat deposition in adipocytes, possibly due to diverse off-targets of 6 and 11. […] Among TLX ligands the agonist 19 increased the amount of fat and lipid particle size, pointing to enhanced adipogenesis. The inverse TLX agonist 21 had no effect. PNR ligand effects in the adipogenesis model were generally weak.
Differentiation experiments of ASC52telo, hTERT cells (ATCC® SCRC-4000™) were conducted according to a previously described procedure.[162] In brief, the cells were grown in DMEM high-glucose medium supplemented with 10% fetal calf serum, sodium pyruvate (1 mM), penicillin (100 U/mL), and streptomycin (100 μg/mL) at 37 °C and 5% CO2. The cells were seeded in standard culture medium at a density of 5x10^4 cells per well in 96-well plates. After adherence overnight, cells were incubated with differentiation medium, composed of standard culture medium supplemented with human insulin (10 µg/mL, #I3536, Merck KgaA, Darmstadt, Germany), dexamethasone (1 µM, #D4902, Merck KgaA, Darmstadt, Germany,), isobutylmethylxanthine (0.5 mM, #I5879, Merck KgaA, Darmstadt, Germany), DMSO (final concentration 0.1%) and the respective test compounds or pioglitazone at 1 µM. The cells were kept in a differentiation medium for 48-72 h followed by a 24 h incubation with standard culture medium supplemented with 10 µg/mL insulin only. This cycle was repeated five times accounting for a total differentiation time of 18 days. The indicated test compounds at 0.1% DMSO or 0.1% DMSO alone as vehicle control were supplemented freshly with every medium exchange. After the 18-day differentiation procedure and test compound treatment, the cells were washed with phosphate buffered saline (PBS) once and fixed with formalin (10%, stabilized with methanol, 100 µL per well, #15071, Morphisto GmbH, Offenbach am Main, Germany) for 15 min at room temperature. The fixing solution was aspirated, and the fixed cells were washed twice with 50% ethanol solution with the second wash step incubating for 15 min at room temperature to equilibrate the specimens for staining. Oil Red O (#O0625, Merck KgaA, Darmstadt, Germany) was prepared at 0.5% (w/v) in 50% ethanol (v/v) and 5% salicylic acid (w/v), filtered with grade 595 Whatman® filter paper (#311611, Schleicher & Schuell GmbH, London, U.K.) and a 0.2 µm syringe filter (FP 30/0,2 CA-S, #10462200, Schleicher & Schuell GmbH, London, U.K.). Upon equilibration, specimens were incubated with 100 µL of 0.5% Oil Red O solution for 45 min at room temperature before the staining solution was aspirated and the wells were washed once with 50% (v/v) ethanol solution and three times with ddH2O. Specimens were kept in ddH2O for subsequent analysis. For each well, two pictures were taken at a 4x magnification using a Motic®AE31E inverted microscope and a Moticam 1080 (Motic Hong Kong Ltd.). Images were corrected for skewed illumination, Oil Red O crystal precipitates were identified and removed, and the resulting processed pictures were dichromized to extract gray values from the red channel using CellProfiler (Version 4.2.6). […]

Data set [6] has as its system RXRα. The settings on record: cited from earlier work; for EC50: reporter gene assay.
Data set [7] deals with RXRβ. The settings on record: cited from earlier work.
The subject of data set [8] is RXRγ. Particulars: cited from earlier work; for EC50: reporter gene assay.
In data set [9] the target is T2, RXRα (Homo sapiens, UniProt P19793).
T2 sequence (P19793 227-458 limits assumed): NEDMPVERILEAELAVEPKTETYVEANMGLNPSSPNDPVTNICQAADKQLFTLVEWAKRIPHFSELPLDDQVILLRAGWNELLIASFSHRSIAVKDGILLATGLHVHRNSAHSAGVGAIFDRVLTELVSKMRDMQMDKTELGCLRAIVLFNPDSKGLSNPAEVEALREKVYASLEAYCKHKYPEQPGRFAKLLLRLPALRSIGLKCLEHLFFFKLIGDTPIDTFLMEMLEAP
Put plainly: Gal4-hybrid reporter gene assay RXRα.
Description: as §1

The target of data set [10] is TLX. The settings on record: cited from earlier work. This is another data set of the same source.
Data set [11] relates to TLX. Particulars: read-out: EC50 TLX activation; cellular reporter gene assay; cited from earlier work.
Data set [12] deals with TLX-regulated genes. The settings on record: cited from earlier work.
Data set [13] has as its target T3, TLX (Homo sapiens, UniProt Q9Y466).
T3 construct: encoding the hinge region and the LBD of the canonical isoform of the respective human nuclear receptors; expressed in transfected cells; host or cells: HEK293T
Description: Gal4-hybrid reporter gene assay TLX. It counts as cell-based. The settings on record: selected test concentration (Figure 3).
Description: as §1

The test system of data set [14] is nuclear receptors. Description: Selectivity profiling in Gal4-hybrid reporter gene assay panel. It counts as cell-based, human. The settings on record: at active concentration.
Description: Compounds were tested at concentrations around EC90 according to the literature or at the highest nontoxic concentration (from the multiplex toxicity assay). […] (b) Selectivity profiling of NR2 modulators in a representative panel of nuclear receptors outside the NR2 family. […] Effects <5% of the respective reference ligands were considered as not relevant and omitted. Only effects are shown that are statistically significant against VP16 ctrl (Figure S3); n = 3.
as §1
The test system of data set [15] is COS-7 cells. Description: Multiplex toxicity assay. It counts as cell-based. Particulars: 24 h, at active concentration. The method, then: COS-7 cells (DSMZ #ACC 60) were cultured at 37°C and 5% CO2 in DMEM high glucose medium supplemented with sodium pyruvate (1 mM), penicillin (100 U/mL), streptomycin (100 µg/mL), and 10% fetal calf serum (FCS). After aspirating the wells, the cells were seeded at 1x10^5 cells per well in complete culture medium. […] Each sample was prepared in at least 4 biologically independent replicates. After incubation for 24 h, the wells were aspirated and incubated for 30 min with stimulation medium containing 1 µM NucView® 405 fluorogenic caspase-3 substrate (#10405, Biotium, Fremont, USA) and Live-or-Dye Nuc-Fix Red (0.05x, Biotium, Inc., Fremont, CA, 1691 USA) to detect apoptosis and necrosis, respectively. After incubation, a total of 6 fluorescence images per well at 10x magnification were taken to detect NucView®-positive (Ex: 381–400 nm, Em: 414–450 nm) and Live-or-Dye-positive cells (Ex: 543−566 nm, Em: 580−611 nm) using on a Tecan Spark Cyto (Tecan Group AG). Reference readings for background correction and detection of auto-fluorescence were taken at 414–450 nm prior to staining. Thereafter, wells were aspirated, the cells were incubated for 3 h with 90 µL culture medium (0.2% FCS) and 10 µL Cell Counting Kit-8 solution (CCK-8, MedChem Express #HY-K0301), and absorbance was measured at 1, 2, and 3h of incubation at 450 nm on a Tecan Spark Cyto to assess metabolic activity of the cells. Before drug administration, after the first medium exchange, 24 h after drug administration, and after fluorescence imaging cell confluence was assessed using the Tecan Spark Cyto, to account for changes in cell confluence due to drug administration and cell handling. The number of apoptotic cells, metabolic activity, and changes in cell confluence in response to drug treatment were all normalized to the vehicle control of each biological replicate individually.

Data set [16] deals with TLX expression. The settings on record: cited from earlier work.
For data set [17], the system named is full-length TLX. The settings on record: reporter gene assay; cited from earlier work.
Data set [18] has as its target TLX LBD. The settings on record: ITC; cited from earlier work. (In general: Isothermal titration calorimetry measures the heat released or taken up as one component is titrated into another.)
Setting [19] is: reporter gene assays, read-out: IC50 (counteracting TLX repressor activity).
[20] abbreviates: reporter gene assay, read-out: RXRβ cellular activity/potency.
[21] abbreviates: read-out: RXRγ cellular activity/potency.

Where two headings read alike, the source gives them in different places.

T3 sequence (Q9Y466 155-383 limits assumed): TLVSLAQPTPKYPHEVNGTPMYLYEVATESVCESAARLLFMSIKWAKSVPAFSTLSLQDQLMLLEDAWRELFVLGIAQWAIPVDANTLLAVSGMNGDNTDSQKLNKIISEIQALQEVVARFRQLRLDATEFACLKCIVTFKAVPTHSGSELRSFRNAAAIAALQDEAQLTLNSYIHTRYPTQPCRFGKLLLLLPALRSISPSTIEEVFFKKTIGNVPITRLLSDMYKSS

Take `Cn1c(=O)[nH]c2nc[nH]c2c1=O` [1-methylxantine]: in data set [1] (setting [19]), the IC50 is 9000 nM.
Turning to `CC(Cc1cccc(C(F)(F)F)c1)NCCOC(=O)c1ccccc1` (stereo not shown) [compound 2, benfluorex], the EC50 in [2] was 24400 nM. The “effects on HNF4 activity” value in [3] is “no effects”.
With `CCN(CCCc1ccccc1)CCCc1ccccc1` [compound 3, alverine], the EC50 in [2] is 3500 to 6800 nM. In [3], the “effects on HNF4 activity” value is listed as “no effects”.
Regarding `O=C(O)c1cc(-c2ccccc2)ccc1O` [compound 4], in data set [4], the “expression of HNF4 target gene FBP1” value was “diminished expression”.
Consider `O=C(O)[C@@H]1C[C@H]1c1nc(-c2ccccc2)c(-c2cc(C(F)(F)F)cc(C(F)(F)F)c2)o1` [compound 7], for which, in data set [5], the “Oil red O positive area (amount of fat)” value was “affected neither”. Further, the “fat droplet (particle) size” value in [5] is “affected neither”. Also, the results for the EC50 in data set [6] (read-out: RXRα cellular activity/potency), in [7] (setting [20]) and in data set [8] (setting [21]) were 5 nM, 1.4 nM and 4 nM, respectively.
On to `CC1=C2[C@H](/C=C(\C)C(=O)O)CC[C@@H](C)[C@H]2CC1` [compound 9, Valerenic acid], for which the RXRα fold activation in data set [6] was 9 fold act. The EC50 in [6] (read-out: RXRα EC50) is 27000 nM; in data set [7] (reporter gene assay, read-out: RXRβ EC50), 5200 nM; in data set [8] (read-out: RXRγ EC50) it was 43000 nM. Further, the RXRβ fold activation in data set [7] is listed as 69 fold act. In addition, the RXRγ fold activation in data set [8] is given as 4 fold act. Also, the RXRα activation entry in [9] (10 µM) was “weak RXRα activation”.
Turning to `Cc1cc2c(cc1C1(c3ccc(C(=O)O)cn3)CC1)C(C)(C)CCC2(C)C` [compound 10], the figures for the EC50 in data set [7] (setting [20]) and in data set [8] (setting [21]) were […] and […], respectively.
`CCCCCOc1cc2c(cc1-c1cc(/C=C/C(=O)O)ccc1O)C(C)(C)CCC2(C)C` [compound 12]: the IC50 in data set [7] (reporter gene assay, no precise value reported, read-out: RXRb cellular activity/potency (antagonist)) was around 50 nM. Moreover, the “effect on bexarotene-induced RXR activation” value in data set [9] (1 µM, coincubation with bexarotene) is reported as “robustly blocked”.
On to `CC(C)c1c(CN(C)C(C)Cc2ccccc2)n(C)n(-c2ccccc2)c1=O` (stereo not shown) [compound 14], for which, in data set [10], the Kd was 6600 nM. In data set [11], the EC50 was 9200 nM.
Regarding `CC(C)NCC(O)COc1cccc2ccccc12` (stereo not shown) [compound 18, propranolol], the “TLX-regulated SIRT1 and PTEN/TET3 expression” value in [12] (qRT-PCR) is reported as “modulated”.
Take `CCCCOc1cc(C(=O)Nc2cc(-n3cnc(C)c3)cc(C(F)(F)F)c2)c2ccccc2n1` [compound 19]: in data set [13], the TLX modulation result is recorded as “TLX activation”. The “selectivity over other nuclear receptors” value in data set [14] is “selective over other nuclear receptors”. Also, the cytotoxicity entry in data set [15] is listed as “non-toxic”. Besides, in [5], the “Oil red O positive area (amount of fat)” value was “increased”. Also, the “fat droplet (particle) size” value in [5] is on record as “increased”. Further, the SIRT1 expression result in [12] is “induced SIRT1 expression”. For the same compound, the TLX expression levels result in [16] is reported as “no effect”. For the same compound, the EC50 is 250 nM in data set [1] (read-out: Gal4-TLX EC50) and 700 nM in data set [17]. For the same compound, the IC50 in [1] (reporter gene assay, read-out: IC50 (first value of cell)) is 250 nM. Also, the dissociation constant Kd in [18] was 500 nM.
Regarding `Cn1c(=O)c2[nH]c(-c3ccccc3Cl)nc2n(C)c1=O` [compound 20, 8-(2-chlorophenyl)-theophylline], the IC50 in data set [1] (setting [19]) is 500 nM. In data set [18], the dissociation constant (Kd) is 800 nM.
Take `Cn1c(=O)c2[nH]c(-c3ccccc3)nc2n(C)c1=O` [compound 21, 8-Phenyl-theophylline]: in data set [13], the TLX modulation result is “inverse agonism”. In [14], the “selectivity over other nuclear receptors” value is on record as “selective over other nuclear receptors”. Moreover, in data set [15], the cytotoxicity result is given as “non-toxic”. In data set [5], the “Oil red O positive area (amount of fat)” value was “no effect” and the “fat droplet (particle) size” value is recorded as “no effect”.
